Reference: ChEMBL document CHEMBL5346912, “Discovery of 3,5-diaryl-1H-pyrazol-based ureas as potent RET inhibitors” (Eur J Med Chem, 2023)
pIC50, pKd: −log10 of the molar value.

Assays:
BaF3 [1] = assay: Antiproliferative activity against mouse BaF3 cells expressing CCDC6-RET incubated for 72 hrs by CCK8 assay; type: functional, cell-based; conditions: BaF3, 72 h
BaF3 [2] = assay: Antiproliferative activity against mouse BaF3 cells expressing CCDC6-RET-G810C incubated for 72 hrs by CCK8 assay; type: functional, cell-based; conditions: BaF3, 72 h
BaF3 [3] = assay: Antiproliferative activity against mouse BaF3 cells expressing CCDC6-RET-V804M incubated for 72 hrs by CCK8 assay; type: functional, cell-based; conditions: BaF3, 72 h
BaF3 [4] = assay: Antiproliferative activity against mouse BaF3 cells expressing CCDC6-RET-G810R incubated for 72 hrs by CCK8 assay; type: functional, cell-based; conditions: BaF3, 72 h
[5] = target: Proto-oncogene tyrosine-protein kinase receptor Ret (Homo sapiens, UniProt P07949); assay: Binding affinity to RET (unknown origin) assessed as dissociation constant in presence of ATP by FRET based Z'-Lyte assay
Sequence of Proto-oncogene tyrosine-protein kinase receptor Ret (P07949 whole entry): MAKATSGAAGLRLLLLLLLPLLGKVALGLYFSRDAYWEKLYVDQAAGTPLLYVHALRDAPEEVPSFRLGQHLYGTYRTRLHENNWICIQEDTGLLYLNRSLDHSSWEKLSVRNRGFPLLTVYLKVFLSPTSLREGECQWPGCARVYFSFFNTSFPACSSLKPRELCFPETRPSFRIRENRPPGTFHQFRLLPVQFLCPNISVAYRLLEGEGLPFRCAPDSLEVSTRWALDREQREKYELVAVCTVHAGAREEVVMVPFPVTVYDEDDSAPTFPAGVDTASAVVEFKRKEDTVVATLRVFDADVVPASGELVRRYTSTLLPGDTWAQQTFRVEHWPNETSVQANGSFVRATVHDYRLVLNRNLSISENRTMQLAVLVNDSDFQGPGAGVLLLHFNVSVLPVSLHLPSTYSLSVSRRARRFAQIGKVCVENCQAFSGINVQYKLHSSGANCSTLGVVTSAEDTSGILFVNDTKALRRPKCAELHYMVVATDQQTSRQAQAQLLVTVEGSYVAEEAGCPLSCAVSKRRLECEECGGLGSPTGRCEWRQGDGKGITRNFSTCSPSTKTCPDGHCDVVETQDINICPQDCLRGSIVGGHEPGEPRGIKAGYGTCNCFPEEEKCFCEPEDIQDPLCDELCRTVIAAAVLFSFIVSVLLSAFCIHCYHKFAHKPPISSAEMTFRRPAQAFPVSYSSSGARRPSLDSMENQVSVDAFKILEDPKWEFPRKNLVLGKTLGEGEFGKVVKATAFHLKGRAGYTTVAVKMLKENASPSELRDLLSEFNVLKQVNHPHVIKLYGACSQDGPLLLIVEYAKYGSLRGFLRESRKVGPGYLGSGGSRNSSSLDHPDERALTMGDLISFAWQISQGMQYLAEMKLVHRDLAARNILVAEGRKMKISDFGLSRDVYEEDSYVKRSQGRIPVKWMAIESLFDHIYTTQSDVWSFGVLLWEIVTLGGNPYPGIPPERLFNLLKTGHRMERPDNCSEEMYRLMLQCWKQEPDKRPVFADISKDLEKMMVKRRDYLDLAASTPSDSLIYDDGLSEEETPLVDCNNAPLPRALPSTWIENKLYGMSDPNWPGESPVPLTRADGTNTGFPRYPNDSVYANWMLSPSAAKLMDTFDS

BaF3 [6] = assay: cells; conditions: Mus musculus, BaF3, 72 h
Description: Antiproliferative activity against mouse BaF3 cells incubated for 72 hrs by CCK8 assay

Question: How did the pIC50 (BaF3 [1]) turn out when COc1cc(-c2cc(-c3ccc(NC(=O)Nc4cc(C(C)(C)C(F)(F)F)on4)c(F)c3)n[nH]2)ccc1OCCN1CCOCC1 was run?
Answer: 8.52

Question: And the pIC50 (BaF3 [2])?
Answer: 6.93

Question: And the pIC50 (BaF3 [3])?
Answer: 8.41

Question: And the pIC50 (BaF3 [4])?
Answer: 6.50

Question: What about the pKd [5] of the same compound?
Answer: 8.05

Question: And the pIC50 (BaF3 [6])?
Answer: 6.43

Question: How did the pIC50 (BaF3 [1]) turn out when COc1cc(NC(=O)Nc2cc(C(C)(C)C)on2)ccc1-c1cc(-c2ccc(OCCN3CCOCC3)cc2)[nH]n1 was run?
Answer: 6.41

Question: And the pIC50 (BaF3 [2])?
Answer: 5.95

Question: What about the pIC50 (BaF3 [3]) of the same compound?
Answer: 6.36

Question: What about the pIC50 (BaF3 [4]) of the same compound?
Answer: 6.01

Question: What about the pKd [5] of the same compound?
Answer: 7.49

Question: And the pIC50 (BaF3 [6])?
Answer: 6.20

Question: How did the pIC50 (BaF3 [1]) turn out when CN(C)CCCOc1ccc(-c2cc(-c3ccc(NC(=O)Nc4cc(C(C)(C)C)on4)cc3)n[nH]2)cc1 was run?
Answer: 8.03

Question: And the pIC50 (BaF3 [2])?
Answer: 6.88

Question: And the pIC50 (BaF3 [3])?
Answer: 7.98

Question: And the pIC50 (BaF3 [4])?
Answer: 6.27

Question: What about the pKd [5] of the same compound?
Answer: 8.70

Question: What about the pIC50 (BaF3 [6]) of the same compound?
Answer: 5.93

Question: With CC(C)(C)c1cc(NC(=O)Nc2ccc(-c3cc(-c4ccc(OCCN5CCOCC5)cc4Br)[nH]n3)cc2)no1 as the compound, how does the pIC50 (BaF3 [1]) read?
Answer: 7.17

Question: What about the pIC50 (BaF3 [2]) of the same compound?
Answer: 6.22

Question: And the pIC50 (BaF3 [3])?
Answer: 7.21

Question: And the pIC50 (BaF3 [4])?
Answer: 5.89

Question: What about the pKd [5] of the same compound?
Answer: 7.81

Question: And the pIC50 (BaF3 [6])?
Answer: 5.92

Question: How did the pIC50 (BaF3 [1]) turn out when CC(C)(C)c1cc(NC(=O)Nc2ccc(-c3cn(-c4ccc(OCCN5CCOCC5)cc4Cl)nn3)cc2)no1 was run?
Answer: 6.23

Question: And the pIC50 (BaF3 [2])?
Answer: 5.74

Question: What about the pIC50 (BaF3 [3]) of the same compound?
Answer: 5.93

Question: What about the pIC50 (BaF3 [4]) of the same compound?
Answer: 5.97

Question: And the pKd [5]?
Answer: 7.58

Question: What about the pIC50 (BaF3 [6]) of the same compound?
Answer: 5.96

Question: How did the pIC50 (BaF3 [1]) turn out when CC(C)(C)c1cc(NC(=O)Nc2ccc(-c3cc(-c4ccc(OCCN5CCOCC5)cc4)[nH]n3)cc2F)no1 was run?
Answer: 8.15

Question: And the pIC50 (BaF3 [2])?
Answer: 7.00

Question: What about the pIC50 (BaF3 [3]) of the same compound?
Answer: 8.18

Question: What about the pIC50 (BaF3 [4]) of the same compound?
Answer: 5.88

Question: What about the pKd [5] of the same compound?
Answer: 8.09

Question: And the pIC50 (BaF3 [6])?
Answer: < 5.52

Question: Which results are given for Cc1cc(NC(=O)Nc2cc(C(C)(C)C)on2)ccc1-c1cc(-c2ccc(OCCN3CCOCC3)cc2)[nH]n1?
Answer: pIC50 (BaF3 [1]): 7.45; pIC50 (BaF3 [2]): 6.71; pIC50 (BaF3 [3]): 7.47; pIC50 (BaF3 [4]): 5.69; pKd [5]: 7.74; pIC50 (BaF3 [6]): < 5.00

Question: CC(C)(C)c1cc(NC(=O)Nc2ccc(-c3cc(-c4ccc(OCCCN5CCOCC5)cc4)[nH]n3)cc2)no1 was tested. Which pIC50 (BaF3 [1]) did it give?
Answer: 8.02

Question: And the pIC50 (BaF3 [2])?
Answer: 6.78

Question: And the pIC50 (BaF3 [3])?
Answer: 7.91

Question: And the pIC50 (BaF3 [4])?
Answer: 6.24

Question: And the pKd [5]?
Answer: 8.39

Question: What about the pIC50 (BaF3 [6]) of the same compound?
Answer: 5.97

Question: With CC(C)(C)c1cc(NC(=O)Nc2ccc(-c3cc(-c4ccc(OCCN5CCOCC5)cc4Cl)[nH]n3)cc2)no1 as the compound, how does the pIC50 (BaF3 [1]) read?
Answer: 7.44

Question: And the pIC50 (BaF3 [2])?
Answer: 6.27

Question: What about the pIC50 (BaF3 [3]) of the same compound?
Answer: 7.45

Question: And the pIC50 (BaF3 [4])?
Answer: 6.20

Question: What about the pKd [5] of the same compound?
Answer: 7.96

Question: And the pIC50 (BaF3 [6])?
Answer: < 5.00

Question: What does the source list for COc1cc(-c2cc(-c3ccc(NC(=O)Nc4cc(C(C)(C)C)on4)c(F)c3)n[nH]2)ccc1OCCN1CCOCC1?
Answer: pIC50 (BaF3 [1]): 8.17; pIC50 (BaF3 [2]): 6.91; pIC50 (BaF3 [3]): 8.13; pIC50 (BaF3 [4]): 6.50; pKd [5]: 7.99; pIC50 (BaF3 [6]): < 5.00

Question: How did the pIC50 (BaF3 [1]) turn out when CC(C)(C)c1cc(NC(=O)Nc2ccc(-c3cc(-c4ccc(OCCN5CCOCC5)cc4)[nH]n3)c(Cl)c2)no1 was run?
Answer: 6.78

Question: And the pIC50 (BaF3 [2])?
Answer: 6.39

Question: And the pIC50 (BaF3 [3])?
Answer: 6.68

Question: What about the pIC50 (BaF3 [4]) of the same compound?
Answer: 6.00

Question: And the pKd [5]?
Answer: 7.80

Question: What about the pIC50 (BaF3 [6]) of the same compound?
Answer: 5.98

Question: CC(C)(C)c1cc(NC(=O)Nc2ccc(-c3cc(-c4ccc(OCCN5CCOCC5)c(Cl)c4)[nH]n3)cc2)no1 was tested. Which pIC50 (BaF3 [1]) did it give?
Answer: 7.69

Question: What about the pIC50 (BaF3 [2]) of the same compound?
Answer: 6.80

Question: What about the pIC50 (BaF3 [3]) of the same compound?
Answer: 7.55

Question: What about the pIC50 (BaF3 [4]) of the same compound?
Answer: < 5.00

Question: What about the pKd [5] of the same compound?
Answer: 8.03

Question: And the pIC50 (BaF3 [6])?
Answer: < 5.00

Question: COc1ccc(CN2[C@@H]3C[C@H]2CN(c2ccc(-c4cc(OCC(C)(C)O)cn5ncc(C#N)c45)cn2)C3)cn1 was tested. Which pIC50 (BaF3 [1]) did it give?
Answer: 7.94

Question: What about the pIC50 (BaF3 [2]) of the same compound?
Answer: 5.88

Question: And the pIC50 (BaF3 [3])?
Answer: 7.59

Question: And the pIC50 (BaF3 [4])?
Answer: 6.05

Question: What about the pIC50 (BaF3 [6]) of the same compound?
Answer: < 5.52
